Reference: the NIST ThermoML archive (doi:10.1021/je900387e)

Test: xn = mol fraction of the nth substance listed
Conditions: Liquid, Pycnometric method

CCCCCl [1-chlorobutane] + O=C=O
Conditions	mass density [kg/m3]
313.1 K, 10970 kPa, x1 = 0.0744	828
313.1 K, 11030 kPa, x1 = 0.0243	763
313.1 K, 11220 kPa, x1 = 0.0483	800
313.1 K, 11230 kPa, x1 = 0.0981	855
313.1 K, 11350 kPa, x1 = 0.0744	833
313.1 K, 11500 kPa, x1 = 0.1488	870
313.1 K, 11510 kPa, x1 = 0.0483	806
313.1 K, 11780 kPa, x1 = 0.0744	839
313.1 K, 11810 kPa, x1 = 0.0483	811
313.1 K, 11820 kPa, x1 = 0.0981	862
313.1 K, 12110 kPa, x1 = 0.0483	816
313.1 K, 12170 kPa, x1 = 0.1488	875
313.1 K, 12220 kPa, x1 = 0.0744	844
313.1 K, 12430 kPa, x1 = 0.0744	847
313.1 K, 12440 kPa, x1 = 0.0981	869
313.1 K, 12540 kPa, x1 = 0.1488	878
313.1 K, 12780 kPa, x1 = 0.0981	872
313.1 K, 12890 kPa, x1 = 0.1488	880
313.1 K, 13000 kPa, x1 = 0.0981	874
313.1 K, 13240 kPa, x1 = 0.1488	883
313.1 K, 13660 kPa, x1 = 0.1488	885
313.1 K, 14020 kPa, x1 = 0.1488	888
313.1 K, 14460 kPa, x1 = 0.1488	890
313.1 K, 14830 kPa, x1 = 0.1488	893
314.5 K, 8320 kPa, x1 = 0.0243	495
314.5 K, 8330 kPa, x1 = 0.0243	501
314.5 K, 8360 kPa, x1 = 0.0243	510
314.5 K, 8390 kPa, x1 = 0.0243	522
314.5 K, 8430 kPa, x1 = 0.0243	531
314.5 K, 8460 kPa, x1 = 0.0243	541
314.5 K, 8490 kPa, x1 = 0.0243	552
314.5 K, 8530 kPa, x1 = 0.0243	562
314.5 K, 8590 kPa, x1 = 0.0243	575
314.5 K, 8650 kPa, x1 = 0.0243	588
314.5 K, 8720 kPa, x1 = 0.0243	602
314.5 K, 8820 kPa, x1 = 0.0243	617
314.5 K, 8930 kPa, x1 = 0.0243	632
314.5 K, 9080 kPa, x1 = 0.0243	648
314.5 K, 9270 kPa, x1 = 0.0243	664
314.5 K, 9480 kPa, x1 = 0.0243	680
314.5 K, 9790 kPa, x1 = 0.0243	698
314.5 K, 10150 kPa, x1 = 0.0243	715
314.5 K, 10480 kPa, x1 = 0.0243	729
314.5 K, 10730 kPa, x1 = 0.0243	738
314.5 K, 11030 kPa, x1 = 0.0243	748
314.5 K, 11370 kPa, x1 = 0.0243	758
314.5 K, 11740 kPa, x1 = 0.0243	767
317.9 K, 7340 kPa, x1 = 0.1488	805
317.9 K, 7730 kPa, x1 = 0.0981	761
317.9 K, 7740 kPa, x1 = 0.1488	811
317.9 K, 7900 kPa, x1 = 0.0981	766
317.9 K, 8050 kPa, x1 = 0.0744	713
317.9 K, 8060 kPa, x1 = 0.1488	815
317.9 K, 8090 kPa, x1 = 0.0981	771
317.9 K, 8230 kPa, x1 = 0.0744	720
317.9 K, 8310 kPa, x1 = 0.0981	777
317.9 K, 8360 kPa, x1 = 0.0744	727
317.9 K, 8450 kPa, x1 = 0.1488	820
317.9 K, 8520 kPa, x1 = 0.0744	733
317.9 K, 8530 kPa, x1 = 0.0483	630
317.9 K, 8530 kPa, x1 = 0.0981	782
317.9 K, 8560 kPa, x1 = 0.0243	417
317.9 K, 8590 kPa, x1 = 0.0243	423
317.9 K, 8590 kPa, x1 = 0.0483	636
317.9 K, 8630 kPa, x1 = 0.0243	433
317.9 K, 8670 kPa, x1 = 0.0243	443
317.9 K, 8690 kPa, x1 = 0.0483	646
317.9 K, 8690 kPa, x1 = 0.0744	740
317.9 K, 8720 kPa, x1 = 0.0243	453
317.9 K, 8750 kPa, x1 = 0.0243	464
317.9 K, 8770 kPa, x1 = 0.0981	787
317.9 K, 8790 kPa, x1 = 0.0243	473
317.9 K, 8810 kPa, x1 = 0.0483	656
317.9 K, 8830 kPa, x1 = 0.1488	823
317.9 K, 8850 kPa, x1 = 0.0243	484
317.9 K, 8880 kPa, x1 = 0.0744	746
317.9 K, 8890 kPa, x1 = 0.0243	496
317.9 K, 8940 kPa, x1 = 0.0243	507
317.9 K, 8940 kPa, x1 = 0.0483	667
317.9 K, 8990 kPa, x1 = 0.0243	520
317.9 K, 9050 kPa, x1 = 0.0981	793
317.9 K, 9060 kPa, x1 = 0.0243	534
317.9 K, 9080 kPa, x1 = 0.0483	678
317.9 K, 9110 kPa, x1 = 0.0744	753
317.9 K, 9140 kPa, x1 = 0.0243	549
317.9 K, 9200 kPa, x1 = 0.0483	689
317.9 K, 9230 kPa, x1 = 0.0243	565
317.9 K, 9240 kPa, x1 = 0.1488	828
317.9 K, 9340 kPa, x1 = 0.0243	582
317.9 K, 9350 kPa, x1 = 0.0981	799
317.9 K, 9360 kPa, x1 = 0.0744	760
317.9 K, 9460 kPa, x1 = 0.0243	599
317.9 K, 9490 kPa, x1 = 0.0483	701
317.9 K, 9580 kPa, x1 = 0.0243	615
317.9 K, 9600 kPa, x1 = 0.0744	766
317.9 K, 9650 kPa, x1 = 0.0981	804
317.9 K, 9660 kPa, x1 = 0.1488	832
317.9 K, 9740 kPa, x1 = 0.0243	630
317.9 K, 9770 kPa, x1 = 0.0483	713
317.9 K, 9840 kPa, x1 = 0.0243	639
317.9 K, 9890 kPa, x1 = 0.0744	773
317.9 K, 9950 kPa, x1 = 0.0243	647
317.9 K, 10010 kPa, x1 = 0.0981	810
317.9 K, 10030 kPa, x1 = 0.0243	654
317.9 K, 10090 kPa, x1 = 0.0483	725
317.9 K, 10090 kPa, x1 = 0.1488	836
317.9 K, 10220 kPa, x1 = 0.0744	780
317.9 K, 10350 kPa, x1 = 0.0483	734
317.9 K, 10350 kPa, x1 = 0.0981	815
317.9 K, 10560 kPa, x1 = 0.0744	787
317.9 K, 10580 kPa, x1 = 0.1488	841
317.9 K, 10650 kPa, x1 = 0.0483	742
317.9 K, 10750 kPa, x1 = 0.0981	822
317.9 K, 10940 kPa, x1 = 0.0744	794
317.9 K, 10970 kPa, x1 = 0.0483	752
317.9 K, 11090 kPa, x1 = 0.1488	847
317.9 K, 11180 kPa, x1 = 0.0981	827
317.9 K, 11340 kPa, x1 = 0.0483	761
317.9 K, 11370 kPa, x1 = 0.0744	802
317.9 K, 11620 kPa, x1 = 0.1488	851
317.9 K, 11670 kPa, x1 = 0.0981	834
317.9 K, 11740 kPa, x1 = 0.0483	770
317.9 K, 11860 kPa, x1 = 0.0744	810
317.9 K, 11940 kPa, x1 = 0.1488	853
317.9 K, 12140 kPa, x1 = 0.0981	839
317.9 K, 12220 kPa, x1 = 0.0483	780
317.9 K, 12240 kPa, x1 = 0.1488	856
317.9 K, 12370 kPa, x1 = 0.0744	817
317.9 K, 12520 kPa, x1 = 0.1488	858
317.9 K, 12690 kPa, x1 = 0.0981	846
317.9 K, 12740 kPa, x1 = 0.0483	790
317.9 K, 12850 kPa, x1 = 0.1488	861
317.9 K, 12930 kPa, x1 = 0.0744	825
317.9 K, 13140 kPa, x1 = 0.1488	863
317.9 K, 13250 kPa, x1 = 0.0981	852
317.9 K, 13320 kPa, x1 = 0.0483	800
317.9 K, 13440 kPa, x1 = 0.1488	865
317.9 K, 13510 kPa, x1 = 0.0744	833
317.9 K, 13620 kPa, x1 = 0.0483	805
317.9 K, 13800 kPa, x1 = 0.1488	868
317.9 K, 13830 kPa, x1 = 0.0981	859
317.9 K, 13950 kPa, x1 = 0.0483	811
317.9 K, 14180 kPa, x1 = 0.0744	841
317.9 K, 14190 kPa, x1 = 0.1488	871
317.9 K, 14300 kPa, x1 = 0.0483	816
317.9 K, 14480 kPa, x1 = 0.1488	873
317.9 K, 14530 kPa, x1 = 0.0981	865
317.9 K, 14860 kPa, x1 = 0.1488	875
317.9 K, 14910 kPa, x1 = 0.0744	849
317.9 K, 15220 kPa, x1 = 0.0981	872
322.7 K, 7900 kPa, x1 = 0.1488	782
322.7 K, 8140 kPa, x1 = 0.1488	786
322.7 K, 8330 kPa, x1 = 0.0981	728
322.7 K, 8380 kPa, x1 = 0.1488	789
322.7 K, 8510 kPa, x1 = 0.0981	734
322.7 K, 8620 kPa, x1 = 0.0243	328
322.7 K, 8620 kPa, x1 = 0.0981	739
322.7 K, 8630 kPa, x1 = 0.0744	669
322.7 K, 8670 kPa, x1 = 0.1488	794
322.7 K, 8690 kPa, x1 = 0.0243	336
322.7 K, 8740 kPa, x1 = 0.0744	675
322.7 K, 8750 kPa, x1 = 0.0243	343
322.7 K, 8780 kPa, x1 = 0.0981	744
322.7 K, 8810 kPa, x1 = 0.0243	351
322.7 K, 8860 kPa, x1 = 0.0243	360
322.7 K, 8860 kPa, x1 = 0.0744	683
322.7 K, 8920 kPa, x1 = 0.0243	368
322.7 K, 8940 kPa, x1 = 0.0981	749
322.7 K, 8970 kPa, x1 = 0.1488	798
